According to patent US11360104B2, “Microbial-based biosensors” (TRUSTEES OF BOSTON UNIVERSITY, priority 2017, dated 2022):
Read-outs that look alike come from different tables or passages of the source.

Experiments:
[1] = system: TetR variant TetRd (TetR-6His, on QD2); experiment: FRET sensor 3 (QD2-TetRd + Cy5-DNA) titrated with aTc; aTc-induced TF-DNA unbinding; format: biochemical
Description: (§1) The TetO cognate sequence comprises a 19 bp binding region. The 19 bp cognate sequence was flanked by 4-5 bp on each side to ensure binding, resulting in a 28 bp DNA oligo. One of the strands was labeled with the FRET acceptor Cy5 on both the 5′ and 3′ ends. A second 28 bp sequence with no affinity for TetR was similarly labeled to act as the negative control (Table 4).
(§2) Each sensor consists of Cy5-modified DNA acting as the FRET acceptor with either a fluorescent protein-transcription factor (FP-TF) fusion protein (expressed in E. coli) or quantum dot-transcription factor (QD-TF) conjugate as the donor.
(§3) A TF to DNA ratio was chosen for each sensor (1:3 for Sensor 1, 1:4.5 for Sensors 2 and 3) and kept constant for subsequent experiments testing sensor sensitivity to aTc.
(§4) To compare the three sensors, the sensor outputs were fit to a modified Hill equation written as:
(§5) [formula] where S0 is the intensity of the sensor signal with no analyte present, S1 is the intensity of the sensor signal at saturating analyte concentration, c is the analyte concentration, EC50 is the concentration at which there is 50% signal (aka the effective concentration, or EC50), and h is the Hill coefficient, which indicates cooperative binding. For visual comparison, the sensor outputs were normalized and plotted together (FIGS. 4A and B).
(§6) For Sensors 2 and 3, QDs and tetR-6His were mixed at a 1:4 ratio with a final QD concentration of 50 nM for self-assembly of the tetR-6His to the surface of the QDs^21.

[2] = system: TetR variant TetRc, tdTomato fusion (tetR-tdTomato); experiment: FRET sensor 1 (tdTomato-TetRc + Cy5-DNA) titrated with aTc; aTc-induced TF-DNA unbinding; format: biochemical
Description: as §1, §2, §3, §4, §5

[3] = system: TetR variant TetRc (TetR-6His, on QD1); experiment: FRET sensor 2 (QD1-TetRc + Cy5-DNA) titrated with aTc; aTc-induced TF-DNA unbinding; format: biochemical
Description: as §1, §2, §3, §4, §5, §6

[4] = system: steroid responsive genome island (SRGI); experiment: Whole transcriptome RNA-Seq of steroid treated P. simplex; format: cell-based, Pimelobacter simplex; conditions: P. simplex exposed to steroid vs solvent control, Log2 fold change
Description: (§7) In order to identify steroid binding Transcription Factors, a whole transcriptome RNA sequencing (RNA-Seq) screen was developed (FIG. 7). The growth of Pimelobacter simplex bacteria was profiled with respect to the starting inoculation density, solvent toxicity, and the addition of steroids (FIG. 16). […] P. simplex bacteria were screened against the steroid solvents ethanol (EtOH) and dimethyl sulfoxide (DMSO). […] Steroid growth curves were similarly performed using a starting OD of 0.005 and constant solvent dosing with titrations of steroids. […] P. simplex bacteria were grown in the presence of 700 μM testosterone, 21.88 μM progesterone, 87.50 μM estrone, 21.88 μM 17β-estradiol, 21.88 μM hydrocortisone, or 175.00 μM aldosterone concentrations were selected for comparison.
Using accession gene tags, genes were annotated for steroid relevant enzymes or transcription factors. […] Allosteric TF binding sequences are often palindromes and typically located near the start of its gene location in an intergenic space. With such a design, the allosteric TF can regulate itself or the open reading frame (ORF) near it in response to its effector molecule. […] Once identified, the TFs were cloned and recombinantly expressed for thorough characterization.
Cells were grown in 6 mL volumes of media at the OD, solvent, and steroid concentrations found from the growth curves in 14 mL polypropylene round-bottom tubes (Corning #352059) in technical duplicate. The same controls as in the steroid exposure growth curve were used for setting up RNA extraction samples. The cells were incubated at their corresponding temperature with continuous orbital shaking at 150 rpm until the end of lag-phase, mid-log phase, or stationary phase from the start of inoculation. Afterward, samples were removed and a 1:1 ratio of RNAprotect Bacteria Reagent (Qiagen #76506) was added followed by spinning down at 4° C. for 10 minutes at 4000 g. Supernatant was removed and the pellet re-suspended in 300 μL of RNAprotect and transferred into 2.0 mL Safe-Lock Tubes (Eppendorf #3101). The samples were then spun down once again at 4° C. for 10 minutes at 10000 g. Once the supernatant has been removed the samples were placed on ice and ready for RNA extraction. RNA extraction was done by Qiacube (Qiagen #9001292) set to the RNeasy Protect Bacteria Mini Kit protocol of bacterial cell pellet with enzymatic lysis. Tube A was prepared as described except with the addition of 150 mg/mL lysozyme (Sigma-Aldrich #L6876) and 20 mg/mL proteinase K (Roche #03115879001) all diluted in 1xTE buffer. RNA samples were subsequently quantified using Qubit RNA HS Assay Kit (Thermo Fisher Scientific #Q32852) and analyzed using a RNA 6000 Pico Kit (Agilent 5067-1513) in a 2100 Bioanalyzer (Agilent G2939A). RNA samples were either immediately used for RNA-Seq library preparation or stored long-term at −80° C.
RNA-Seq libraries were then produced from these samples using a slightly modified ScriptSeq v2 RNA-Seq Library Preparation Kit (Illumina 455A/22124) ensuring use of unique index primers through ScriptSeq Index PCR Primers (Sets 1-4) 48 rxns/set (Illumina #SSIP1234).

Pimelobacter simplex = experiment: Solvent and steroid exposure growth curves; conditions: P. simplex, starting OD 0.005, constant solvent
Description: as §7
In order to properly determine the doubling time of the strain, growth curves were performed. All growth curves were done in 100 μL per well volumes in 96 well flat clear bottom black polystyrene TC-treated microplates which were individually wrapped with a lid and sterile (Corning #3603). Measurements were done by an Infinite M200 Pro (TECAN) spectrophotometer at the temperature suited for P. simplex. Readings were performed over 96 cycles of 15 minutes each at 600 nm absorbance with 25 flashes in a 3×3 (XY-Line) type reads per well. In between reads there was orbital shaking at 150 rpm frequency for a total of 10 minutes. In order to characterize the growth alone, a ½ serial dilution of 9 concentrations from 0.5-0.0020 OD600 nm were prepared in the respective media. Then each concentration was measured as previously described using a microplate reader (TECAN) and normalized against a media background control in technical triplicate. Afterward, an appropriate starting concentration of cells was chosen with a substantially long lag-phase, linear log phase, and a plateau of stationary-phase.
Once an appropriate starting cell concentration was chosen, a secondary growth curve was performed to test the toxicity levels of the solvents used to dissolve steroids of interest. Since the steroids used are heavily hydrophobic, they often need to be dissolved in organic solvents such as DMSO or ethanol which are toxic to bacteria at high concentrations. P. simplex was incubated under microplate reader conditions previously mentioned at a starting OD determined by the first growth curve with DMSO, ethanol, or H2O at ½ serial dilutions for a total of eight concentrations (50-0.39%) tested in technical triplicate. Two controls were included per solvent; a positive control without solvent and a media control which allowed for appropriate normalization. Solvent exposure growth curves allowed for choosing the maximum amount of solvent concentration that strains would sustain while maintaining relative viability in order to determine a range of steroid concentrations which could be used.
A tertiary growth curve was performed to test the toxicity levels of steroid specific to P. simplex. The strain was incubated under microplate reader conditions previously mentioned at a starting OD determined by the first growth curve and the highest solvent concentration corresponding to the steroid of interest with steroid at ½ serial dilutions for a total of seven concentrations tested in singlet. Testosterone, progesterone, 17β-estradiol, hydrocortisone, and aldosterone were all dissolved in ethanol while estrone was dissolved in DMSO. Three controls were included for each steroid; a positive control with the highest tolerable solvent concentration (%), a positive control with media, and a media control which allowed for normalization. Steroid exposure growth curves allowed for choosing the maximum amount of steroid concentration that P. simplex would sustain while maintaining relative viability.

PinR = PinR (Nocardioides simplex (Pimelobacter simplex), UniProt A0A0A1DUF2); experiment: Cross-reactivity test with estradiol, 1:4:6 QD:TF:oligo sensor; format: biochemical; conditions: FIG. 44E
Description: FIGS. 44A-44E show a schematic of the biosensor and emission plots. […] These two graphs show the difference between our sensor (blue) and negative control (orange). The lowest number of acceptor molecules with the largest difference between the signal and noise (difference between blue and orange) is the concentration ratio that we want to work with moving forward. The sensor tested moving forward comprised a 1:4:6 ratio of QD:TF:oligo-dye. Fda=Donor emission intensity in the presence of acceptor; Fd=Donor emission intensity in the absence of acceptor; Relative Donor Emission=Fda/Fd; FRET efficiency=1−Fda/Fd; Fa=Acceptor emission intensity in the presence of the donor; [QD]=50 nM; Oligo-Cy5:QD=0-48. […] When the TF is bound to the QD and the oligo is bound to the TF, which is more likely in the absence of the analyte (red line), the donor emission intensity is decreased and the acceptor emission intensity is increased (energy transfer from the QD to the dye on the oligo). The presence of the analyte decreases the affinity of the TF for the oligo, so binding is less likely; as a result, the donor emission intensity is increased and the acceptor emission intensity decreased. […] This same sensor was tested with estradiol (estrogen) as well to test for cross-reactivity. […]

Sequence of PinR (A0A0A1DUF2 entry or part of it): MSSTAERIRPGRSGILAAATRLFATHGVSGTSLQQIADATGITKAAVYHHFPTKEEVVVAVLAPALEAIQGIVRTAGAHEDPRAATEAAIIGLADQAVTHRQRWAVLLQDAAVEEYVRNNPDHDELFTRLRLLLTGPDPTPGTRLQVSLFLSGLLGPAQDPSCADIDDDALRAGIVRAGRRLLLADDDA

With Cc1c2c(c(O)c3c(O)cccc13)C(=O)[C@]1(O)C(=O)C(C(N)=O)=C(O)[C@@H](N(C)C)[C@@H]1C2 [aTc, anhydrotetracycline] the “h (Hill coefficient)” value ([1]; aTc, sensor 3) was 2.14 ± 0.185, the EC50 ([1]; aTc, sensor 3, QD:TF:DNA 1:4:18, Table 6 fit, read-out: EC50) was 133 ± 6.15 nM and the EC50 ([1]; sensor 3, legend of FIG. 4, read-out: c50 (analyte concentration that yields 50% signal, EC50)) was 117 nM. The “h (Hill coefficient)” value ([2]; aTc, sensor 1) was 1.57 ± 0.0802, the EC50 ([2]; aTc, sensor 1, tdTomato:TF:DNA 1:1:3, Table 6 fit, read-out: EC50) was 218 ± 9.18 nM and the EC50 ([2]; sensor 1, legend of FIG. 4, read-out: c50 (analyte concentration that yields 50% signal, EC50)) was 205 nM. The “h (Hill coefficient)” value ([3]; aTc, sensor 2) was 2.37 ± 0.191, the EC50 ([3]; aTc, sensor 2, QD:TF:DNA 1:4:18, Table 6 fit, read-out: EC50) was 699 ± 26.4 nM and the EC50 ([3]; sensor 2, legend of FIG. 4, read-out: c50 (analyte concentration that yields 50% signal, EC50)) was 682 nM.
With C[C@]12CC[C@@H]3c4ccc(O)cc4CC[C@H]3[C@@H]1CC[C@@H]2O [17β-estradiol, 17β-Estradiol] the “upregulation of genes inside the SRGI” value [4] was “not”, the “highest steroid concentration exhibiting normal growth profile” value (Pimelobacter simplex) was 21.88 µM and the “impact of concentration on the sensor binding/unbinding (Fa/Fd)” value (PinR) was “no impact”.
